Data as given in US10258639B2, “Methods for treating insulin resistance and for sensitizing patients to GLP1 agonist therapy” (Research Development Foundation, priority 2014, dated 2019).

System: INS1 cells
Experiment: RNAseq of INS1 cells grown in chronic high glucose compared to controls and stimulated with FSK (Table 2)
Assay type: cell-based, rat
Settings: Low glucose, FSK/control
Method: INS-1 insulinoma cells were cultured in RPMI (corning cellgro) containing 10% fetal bovine serum (Gemini Bio Products), 100 μg/mL penicillin-streptomycin and 1 mM sodium pyruvate (corning cellgro). MIN6 cells were grown in DMEM (corning cellgro) with 10% FBS, 100 μg/mL penicillin-streptomycin and 70 uM beta-mercaptoethanol. For chronic glucose experiments, cells were maintained under low (2.8 mM) or high (20 mM) glucose for 3 days. Exendin-4 (10 nM), Forskolin (10 μM), KCl (40 mM), DMOG (1 mM) and rapamycin (50 nM) were added to cells as indicated. Cellular cAMP levels were measured using an ELISA kit (Cayman Chemical Company) according to manufacturer's instructions. Total RNAs from cells or primary islets were extracted using Trizol and cDNA was generated using the Transcriptor First Strand cDNA Synthesis kit (Roche Applied Science). cDNAs were quantified on a lightcycler 480 instrument (Roche Applied Science). Gene expression data were presented relative to the expression of housekeeping gene L32 (rat samples) and 18S (mouse and human islets). RNA-Seq libraries were prepared using the mRNA isolation protocol and the NEBNext-Ultra kits from New England Biolabs following the manufacturer's protocols. Libraries were quantitated by Qubit (Invitrogen), and run on a MiSeq instrument with paired-end 75 bp reads using v3 chemistry (Illumina) Data were analyzed by tophat2 and cuffdiff against the mouse mm10 genome build. The GEO accession number for RNAseq studies reported in the paper is GSE60158.

C=C[C@@]1(C)CC(=O)[C@]2(O)[C@@]3(C)[C@@H](O)CCC(C)(C)[C@@H]3[C@H](O)[C@H](OC(C)=O)[C@@]2(C)O1 [FSK, Forskolin]
2.0: Acpt Fold | Acsl4 Fold | Agt Fold | Ahi1 Fold | Bhlha15 Fold | Btg3 Fold | Bysl Fold | Canx Fold | Ccni Fold | Chd1 Fold | Chrne Fold | Ctf1 Fold | Cxcl2 Fold | Cyth3 Fold | Dkc1 Fold | Epha3 Fold | Epor Fold | Fam49a Fold | Ficd Fold | Fmc1 Fold | Fn1 Fold | Gabre Fold | Gars Fold | Ggt5 Fold | Gnl3 Fold | Gnmt Fold | Gzmm Fold | Hmcn1 Fold | Hmga2 Fold | Hnrnpa1 Fold | Hnrpdl Fold | Hs3st2 Fold | Hspa4 Fold | Hspd1 Fold | Icam2 Fold | Il13ra1 Fold | Il28ra Fold | Kcnb1 Fold | Kcnj13 Fold | Kdm1b Fold | Kif9 Fold | LOC683722 Fold | LOC686295 Fold | LOC689959 Fold | Lrfn5 Fold | Map3k4 Fold | Mef2d Fold | Megf10 Fold | Msn Fold | Myof Fold | Nckap1l Fold | Nkx2-2 Fold | Nolc1 Fold | Notch4 Fold | Ormdl3 Fold | Otop3 Fold | Pabpc6 Fold | Pde3b Fold | Pde4dip Fold | Pdrg1 Fold | Plcb2 Fold | RGD1309079 Fold | RGD1311084 Fold | Rab3gap2 Fold | Rab11fip1 Fold | Rap2a Fold | Rho Fold | Rpl7a Fold | Rpl17 Fold | Rrs1 Fold | Sgce Fold | Smad1 Fold | Smad3 Fold | Snapc1 Fold | Sncaip Fold | Spon2 Fold | Srp54 Fold | Stard8 Fold | Syp Fold | T2 Fold | Taf1a Fold | Tex38 Fold | Tmem114 Fold | Tomm20 Fold | Tpp2 Fold | Twistnb Fold | Usp9x Fold | Vps37b Fold | Zfp830 Fold | Zfp385d Fold
